The record followed here is US20230398130A1, “METHODS AND COMPOSITIONS FOR DIFFERENTIATING STEM CELLS” (Massachusetts Institute of Technology, priority 2020, published 2023).

The test system of test [1] is ISC-enriched organoids. Nature of the test: Primary screen, 384-well 2.5-D organoid differentiation (ENR+CD, 6 days): basal lysozyme secretion (LYZ.NS). The settings on record: for Dose.FC.LYZ.NS: FC vs plate median. It is filed as cell-based, murine. From the text:
(§1) High-throughput screening.

The test system of test [2] is ISC-enriched organoids. Nature of the test: Primary screen, 384-well 2.5-D organoid differentiation (ENR+CD, 6 days): carbachol-induced lysozyme secretion (LYZ.S). Format: cell-based, murine. The settings on record: FC vs plate median.
Excerpt: as §1

Test [3] concerns ISC-enriched organoids. The test is described as follows: Primary screen, 384-well 2.5-D organoid differentiation (ENR+CD, 6 days, Target Selective Inhibitor Library, vs whole-plate median): ATP (CellTiter-Glo 3D, CTG). The settings on record: for Dose.FC.CTG: FC vs plate median.
The mark [4] stands for this setting: Dose 0.08 uM, standard z score of FC.
Setting [5] is: Dose 0.40 uM, standard z score of FC.
The mark [6] stands for this setting: Dose 2.00 uM, standard z score of FC.
The mark [7] stands for this setting: Dose 10.00 uM, standard z score of FC.
The mark [8] stands for this setting: Dose 0.08 uM, primary screen, standard z score.
Where [9] appears, read: Dose 0.40 uM, primary screen, standard z score.
[10] abbreviates: Dose 2.00 uM, primary screen, standard z score.
Where [11] appears, read: Dose 10.00 uM, primary screen, standard z score.

As to `CN[C@@H](C)C(=O)N[C@H](C(=O)N1CCC[C@H]1C(=O)Nc1snnc1-c1ccccc1)C1CCCCC1` [GDC-0152], the Dose.FC.LYZ.NS is −0.002 log 2 fold change in test [1] (Dose 0.08 uM, ENR+CD, 6 days); −0.020 log 2 fold change in test [1] (Dose 0.40 uM, ENR+CD, 6 days); 0.083 log 2 fold change in test [1] (Dose 2.00 uM, ENR+CD, 6 days); 0.103 log 2 fold change in test [1] (Dose 10.00 uM, ENR+CD, 6 days). For the same molecule, the Z.LYZ.NS in test [1] (setting [4]) is given as −0.013; in test [1] (setting [5]) it was −0.176; in test [1] (setting [6]), 0.724; in test [1] (setting [7]), 0.900. For the same molecule, the Dose.FC.LYZ.S in test [2] (Dose 0.08 uM, ENR+CD, 6 days) is listed as −0.020 log 2 fold change; in test [2] (Dose 0.40 uM, ENR+CD, 6 days), −0.036 log 2 fold change; in test [2] (Dose 2.00 uM, ENR+CD, 6 days), −0.057 log 2 fold change; in test [2] (Dose 10.00 uM, ENR+CD, 6 days), −0.009 log 2 fold change. The Dose.FC.CTG in test [3] (Dose 0.08 uM, ENR+CD, 6 days) is 0.151 log 2 fold change; in test [3] (Dose 0.40 uM, ENR+CD, 6 days), 0.158 log 2 fold change; in test [3] (Dose 2.00 uM, ENR+CD, 6 days) it was 0.003 log 2 fold change; in test [3] (Dose 10.00 uM, ENR+CD, 6 days) it was 0.241 log 2 fold change. In addition, the Z.CTG in test [3] (setting [4]) turned out to be 0.361; in test [3] (setting [5]), 0.377; in test [3] (setting [6]), 0.008; in test [3] (setting [7]) it was 0.575.

Take `CS(=O)(=O)N1CCN(Cc2cc3nc(-c4cccc5[nH]ncc45)nc(N4CCOCC4)c3s2)CC1` [GDC-0941]: the Dose.FC.LYZ.NS in test [1] (Dose 0.08 uM, ENR+CD, 6 days) is given as 0.008 log 2 fold change; in test [1] (Dose 0.40 uM, ENR+CD, 6 days) it was −0.013 log 2 fold change; in test [1] (Dose 2.00 uM, ENR+CD, 6 days) it was −0.128 log 2 fold change; in test [1] (Dose 10.00 uM, ENR+CD, 6 days), −0.156 log 2 fold change. Further, the Z.LYZ.NS in test [1] (setting [4]) is on record as 0.070; in test [1] (setting [5]), −0.112; in test [1] (setting [6]), −1.113; in test [1] (setting [7]), −1.362. The Dose.FC.LYZ.S is reported as 0.018 log 2 fold change in test [2] (Dose 0.08 uM, ENR+CD, 6 days); −0.076 log 2 fold change in test [2] (Dose 0.40 uM, ENR+CD, 6 days); −0.248 log 2 fold change in test [2] (Dose 2.00 uM, ENR+CD, 6 days); −0.257 log 2 fold change in test [2] (Dose 10.00 uM, ENR+CD, 6 days). For the same molecule, the Dose.FC.CTG in test [3] (Dose 0.08 uM, ENR+CD, 6 days) is reported as 0.283 log 2 fold change; in test [3] (Dose 0.40 uM, ENR+CD, 6 days), 0.022 log 2 fold change; in test [3] (Dose 2.00 uM, ENR+CD, 6 days), −0.197 log 2 fold change; in test [3] (Dose 10.00 uM, ENR+CD, 6 days), −1.223 log 2 fold change. In addition, the Z.CTG was 0.677 in test [3] (setting [4]), 0.053 in test [3] (setting [5]), −0.472 in test [3] (setting [6]) and −2.921 in test [3] (setting [7]).

With `NC(=O)c1cccc(-c2cc(Nc3ccc(OC(F)(F)F)cc3)ncn2)c1` [GNF-2], the Dose.FC.LYZ.NS is on record as 0.159 log 2 fold change in test [1] (Dose 0.08 uM, primary screen); −0.024 log 2 fold change in test [1] (Dose 0.40 uM, primary screen); 0.012 log 2 fold change in test [1] (Dose 2.00 uM, primary screen); −0.033 log 2 fold change in test [1] (Dose 10.00 uM, primary screen). Also, the Z.LYZ.NS in test [1] (setting [8]) was 1.386; in test [1] (setting [9]), −0.206; in test [1] (setting [10]), 0.102; in test [1] (setting [11]), −0.286. Besides, the Dose.FC.LYZ.S in test [2] (Dose 0.08 uM, primary screen) is recorded as 0.121 log 2 fold change; in test [2] (Dose 0.40 uM, primary screen), 0.001 log 2 fold change; in test [2] (Dose 2.00 uM, primary screen), 0.046 log 2 fold change; in test [2] (Dose 10.00 uM, primary screen) it was −0.015 log 2 fold change. Besides, the Dose.FC.CTG is recorded as 0.157 log 2 fold change in test [3] (Dose 0.08 uM, primary screen); 0.090 log 2 fold change in test [3] (Dose 0.40 uM, primary screen); 0.074 log 2 fold change in test [3] (Dose 2.00 uM, primary screen); 0.100 log 2 fold change in test [3] (Dose 10.00 uM, primary screen). Further, the Z.CTG in test [3] (setting [8]) worked out at 0.376; in test [3] (setting [9]) it was 0.214; in test [3] (setting [10]) it was 0.176; in test [3] (setting [11]) it was 0.240.

For the molecule `CC1=C(C(=O)Nc2cc3cn[nH]c3cc2F)C(c2ccc(C(F)(F)F)cc2)CC(=O)N1` (centres unmarked) [GSK429286A], the Dose.FC.LYZ.NS in test [1] (Dose 0.08 uM, primary screen) worked out at 0.137 log 2 fold change; in test [1] (Dose 0.40 uM, primary screen), 0.128 log 2 fold change; in test [1] (Dose 2.00 uM, primary screen), 0.140 log 2 fold change; in test [1] (Dose 10.00 uM, primary screen), 0.059 log 2 fold change. For the same molecule, the Z.LYZ.NS in test [1] (setting [8]) amounted to 1.197; in test [1] (setting [9]) it was 1.117; in test [1] (setting [10]), 1.222; in test [1] (setting [11]) it was 0.517. Besides, the Dose.FC.LYZ.S in test [2] (Dose 0.08 uM, primary screen) turned out to be 0.247 log 2 fold change; in test [2] (Dose 0.40 uM, primary screen) it was 0.283 log 2 fold change; in test [2] (Dose 2.00 uM, primary screen) it was 0.245 log 2 fold change; in test [2] (Dose 10.00 uM, primary screen), 0.099 log 2 fold change. Also, the Dose.FC.CTG came to 0.527 log 2 fold change in test [3] (Dose 0.08 uM, primary screen); 0.545 log 2 fold change in test [3] (Dose 0.40 uM, primary screen); 0.488 log 2 fold change in test [3] (Dose 2.00 uM, primary screen); 0.370 log 2 fold change in test [3] (Dose 10.00 uM, primary screen). Further, the Z.CTG is given as 1.260 in test [3] (setting [8]), 1.302 in test [3] (setting [9]), 1.166 in test [3] (setting [10]) and 0.883 in test [3] (setting [11]).

Regarding `C[C@@H](Oc1cc(-n2cnc3ccc(CN4CCN(C)CC4)cc32)sc1C(N)=O)c1ccccc1C(F)(F)F` [GSK461364], the Dose.FC.LYZ.NS was 0.078 log 2 fold change in test [1] (Dose 0.08 uM, primary screen); −0.096 log 2 fold change in test [1] (Dose 0.40 uM, primary screen); −0.246 log 2 fold change in test [1] (Dose 2.00 uM, primary screen); −0.287 log 2 fold change in test [1] (Dose 10.00 uM, primary screen). The Z.LYZ.NS is recorded as 0.682 in test [1] (setting [8]), −0.834 in test [1] (setting [9]), −2.138 in test [1] (setting [10]) and −2.498 in test [1] (setting [11]). Moreover, the Dose.FC.LYZ.S in test [2] (Dose 0.08 uM, primary screen) is on record as 0.112 log 2 fold change; in test [2] (Dose 0.40 uM, primary screen), −0.093 log 2 fold change; in test [2] (Dose 2.00 uM, primary screen), −0.352 log 2 fold change; in test [2] (Dose 10.00 uM, primary screen) it was −0.390 log 2 fold change. For the same molecule, the Dose.FC.CTG is 0.160 log 2 fold change in test [3] (Dose 0.08 uM, primary screen); −0.154 log 2 fold change in test [3] (Dose 0.40 uM, primary screen); −0.628 log 2 fold change in test [3] (Dose 2.00 uM, primary screen); −0.621 log 2 fold change in test [3] (Dose 10.00 uM, primary screen). Also, the Z.CTG in test [3] (setting [8]) is recorded as 0.383; in test [3] (setting [9]) it was −0.368; in test [3] (setting [10]) it was −1.500; in test [3] (setting [11]), −1.484.

As to `CCn1c(-c2nonc2N)nc2c(C#CC(C)(C)O)ncc(OC[C@H]3CCCNC3)c21` [GSK690693], the Dose.FC.LYZ.NS in test [1] (Dose 0.08 uM, primary screen) is recorded as 0.045 log 2 fold change; in test [1] (Dose 0.40 uM, primary screen) it was 0.047 log 2 fold change; in test [1] (Dose 2.00 uM, primary screen), 0.122 log 2 fold change; in test [1] (Dose 10.00 uM, primary screen) it was −0.080 log 2 fold change. Also, the Z.LYZ.NS was 0.388 in test [1] (setting [8]), 0.409 in test [1] (setting [9]), 1.060 in test [1] (setting [10]) and −0.698 in test [1] (setting [11]). Besides, the Dose.FC.LYZ.S in test [2] (Dose 0.08 uM, primary screen) is 0.019 log 2 fold change; in test [2] (Dose 0.40 uM, primary screen), 0.155 log 2 fold change; in test [2] (Dose 2.00 uM, primary screen) it was 0.124 log 2 fold change; in test [2] (Dose 10.00 uM, primary screen), −0.153 log 2 fold change. Also, the Dose.FC.CTG in test [3] (Dose 0.08 uM, primary screen) was 0.129 log 2 fold change; in test [3] (Dose 0.40 uM, primary screen), 0.197 log 2 fold change; in test [3] (Dose 2.00 uM, primary screen) it was −0.027 log 2 fold change; in test [3] (Dose 10.00 uM, primary screen), −0.182 log 2 fold change. Also, the Z.CTG in test [3] (setting [8]) is recorded as 0.308; in test [3] (setting [9]), 0.470; in test [3] (setting [10]) it was −0.064; in test [3] (setting [11]), −0.434.

Turning to `CC(C)c1noc(N2CCC(COc3ccc(-c4ccc(S(C)(=O)=O)cc4)nc3)CC2)n1` [GSK1292263], the Dose.FC.LYZ.NS is 0.078 log 2 fold change in test [1] (Dose 0.08 uM, primary screen); 0.050 log 2 fold change in test [1] (Dose 0.40 uM, primary screen); 0.028 log 2 fold change in test [1] (Dose 2.00 uM, primary screen); 0.020 log 2 fold change in test [1] (Dose 10.00 uM, primary screen). The Z.LYZ.NS in test [1] (setting [8]) is on record as 0.681; in test [1] (setting [9]), 0.434; in test [1] (setting [10]), 0.240; in test [1] (setting [11]), 0.173. Besides, the Dose.FC.LYZ.S in test [2] (Dose 0.08 uM, primary screen) was 0.111 log 2 fold change; in test [2] (Dose 0.40 uM, primary screen) it was 0.101 log 2 fold change; in test [2] (Dose 2.00 uM, primary screen) it was 0.060 log 2 fold change; in test [2] (Dose 10.00 uM, primary screen) it was 0.027 log 2 fold change. Besides, the Dose.FC.CTG in test [3] (Dose 0.08 uM, primary screen) is listed as 0.161 log 2 fold change; in test [3] (Dose 0.40 uM, primary screen), 0.192 log 2 fold change; in test [3] (Dose 2.00 uM, primary screen), 0.224 log 2 fold change; in test [3] (Dose 10.00 uM, primary screen) it was 0.196 log 2 fold change. The Z.CTG came to 0.384 in test [3] (setting [8]), 0.458 in test [3] (setting [9]), 0.535 in test [3] (setting [10]) and 0.468 in test [3] (setting [11]).
